In patent US20020169326A1, “Esters and amides as PLA2 inhibitors” (FUJISAWA PHARMACEUTICAL COMPANY, LTD., priority 1995, published 2002) one finds melting point and inhibition data, which are given here for 45 compounds.

Tested on in the first series: not given
Test: not given
Details: not given
In the case of `CCCCCCCc1ccc(C[C@@H](CC(N)=O)N(CCCC)C(=O)[C@H](CCCC(=O)O)NC(=O)c2cn(Cc3ccccc3Cl)c3ccccc23)cc1`, the melting point was 79 to 81 °C. Still for that read-out and setting: then `CCCCCC[C@@H](CC(N)=O)N(CCC)C(=O)[C@H](CCCC(=O)O)NC(=O)c1cn(Cc2ccccn2)c2ccccc12`, with 78 to 95 °C; and `CCCCN(C(=O)[C@H](CCCC(=O)O)NC(=O)c1cn(Cc2ccccc2Cl)c2ccccc12)[C@H](CC(N)=O)Cc1ccc2cc(CC)ccc2c1`, with 100 to 116 °C. Same read-out and setting: as for `CCCCCCCCCCCCC[C@@H](CC(N)=O)N(CCC)C(=O)[C@H](CCCC(=O)O)NC(=O)c1ccc2ccccc2n1.Cl`, the figure is 59 to 62 °C. Turning to `Cc1ccc(Cn2c(C(=O)N[C@@H](CCCC(=O)O)C(=O)O[C@H](CC(N)=O)Cc3ccc4ccccc4c3)cc3ccccc32)cc1` [Example 165, (3S)-3-[(2S)-5-Carboxy-2-[{1-(4-methylbenzyl)indol-2-ylcarbonyl}amino]pentanoyl]oxy-4-(2-naphthyl)butanamide], the melting point is 86 to 90 °C.

As to `CCCCCCCCCCCCC[C@@H](CC(N)=O)N(CC(C)C)C(=O)[C@H](CCCC(=O)O)NC(=O)c1ccc2ccccc2n1` [Example 149, (3S)-3-[N-Isobutyl-{(2S)-5-carboxy-2-(2-quinolylcarbonylamino)pentanoyl}amino]hexadecanamide], the melting point was 65 to 66 °C. The same measure, in the same setting: as for `CCCCCC[C@@H](CC(N)=O)N(CCC)C(=O)[C@H](CCCC(=O)O)NC(=O)c1cn(Cc2ccccc2)c2ccccc12`, the figure is 147 to 157 °C. The same measure, in the same setting: then `CCCCCN(C(=O)[C@H](CCCC(=O)O)NC(=O)c1cn(Cc2ccccc2)c2ccccc12)[C@H](CC(N)=O)Cc1ccc2ccccc2c1`, with 89 to 93 °C. The same measure, in the same setting: then `CN(CCC(N)=O)C(=O)[C@H](CCCC(=O)O)NC(=O)c1cc2ccccc2cc1Cc1ccccc1` [Example 180, 3-[N-Methyl-{(2S)-2-(3-benzylnaphthalen-2-ylcarbonyl)amino-5-carboxypentanoyl}amino]propanamide], with 147 to 157 °C; and `CCCN(C(=O)[C@H](CCCC(=O)O)NC(=O)c1cn(Cc2ccccn2)c2ccccc12)[C@H](CC(N)=O)Cc1ccc2cc(CC)ccc2c1`, with 110 to 116 °C; and `CC(C)(C)OC(=O)N[C@@H](CCCC(=O)OCc1ccccc1)C(=O)O[C@H](CC(N)=O)Cc1ccc(-c2ccccc2)cc1` [Example 40, (3S)-3-[(2S)-5-Benzyloxycarbonyl-2-(tert-butoxycarbonylamino)pentanoyl]oxy-4-(4-biphenylyl)butanamide], with 94 to 98 °C. Take `CCCN(C(=O)[C@H](CCCC(=O)O)NC(=O)c1cn(Cc2ccccc2Cl)c2ccccc12)[C@H](CC(N)=O)Cc1ccc(C)cc1`: the melting point was 79 to 96 °C. On the same count and under the same terms, as for `CCCCCC[C@@H](CC(N)=O)N(CCC)C(=O)[C@H](CCCC(=O)O)NC(=O)c1cn(Cc2cccc(Cl)c2)c2ccccc12`, the figure is 106 to 109 °C; as for `CCCCc1ccc(C[C@@H](CC(N)=O)N(CCCC)C(=O)[C@H](CCCC(=O)O)NC(=O)c2cn(Cc3ccccc3)c3ccccc23)cc1`, 77 to 82 °C.

As to `CCCCCCCCC[C@@H](CC(N)=O)N(CCCCC)C(=O)[C@H](CCCC(=O)O)NC(=O)c1cn(Cc2ccccc2)c2ccccc12`, the melting point was 125 to 127 °C. The same measure, in the same setting: then `CCCCCC[C@@H](CC(N)=O)N(CCCC)C(=O)[C@H](CCCC(=O)O)NC(=O)c1cn(Cc2ccccc2Cl)c2ccccc12`, with 153 to 156 °C; and `CCN(C(=O)[C@H](CCCC(=O)O)NC(=O)c1cn(Cc2ccccc2)c2ccccc12)[C@H](CC(N)=O)Cc1ccc2ccccc2c1`, with 110 to 112 °C. Take `CCCCN(C(=O)[C@H](CCCC(=O)O)NC(=O)c1cn(Cc2ccccc2Cl)c2ccccc12)[C@H](CC(N)=O)Cc1ccc2ccccc2c1`: the melting point was in the range of 104 to 110 °C. Still for that read-out and setting: as for `CCCCCC[C@@H](CC(N)=O)N(CCC)C(=O)[C@H](CCCC(=O)O)NC(=O)c1cn(Cc2ccccc2Cl)c2ccccc12`, the figure is 175 to 180 °C. Still for that read-out and setting: then `CCCCCN(C(=O)[C@H](CCCC(=O)O)NC(=O)c1cn(Cc2cccc3ccccc23)c2ccccc12)[C@H](CC(N)=O)Cc1ccc2ccccc2c1`, with 112 to 116 °C; and `CCCN(C(=O)[C@H](CCCC(=O)O)NC(=O)c1cn(Cc2cccc3ccccc23)c2ccccc12)[C@H](CC(N)=O)Cc1ccc2ccccc2c1`, with 123 to 126 °C. In turn, `CCCC[C@@H](CC(N)=O)N(CCCC)C(=O)[C@H](CCCC(=O)O)NC(=O)c1cn(Cc2ccccc2Cl)c2ccccc12` came in with a melting point of 105 to 110 °C.

The compound `CCCC[C@@H](CC(N)=O)N(CCC)C(=O)[C@H](CCCC(=O)O)NC(=O)c1cn(Cc2ccccc2Cl)c2ccccc12` displayed a melting point of 95 to 98 °C. The compound `CCCCCCCCCCCCC[C@@H](CC(N)=O)N(Cc1ccccn1)C(=O)[C@H](CCCC(=O)O)NC(=O)c1ccc2ccccc2n1.Cl.Cl` showed a melting point of 74 to 81 °C. On the same count and under the same terms, then `CCCCN(C(=O)[C@H](CCCC(=O)O)NC(=O)c1cn(Cc2ccccc2)c2ccccc12)[C@H](CC(N)=O)Cc1ccc2cc(CC)ccc2c1`, with 100 to 116 °C; and `CCCCCC[C@@H](CC(N)=O)N(CC)C(=O)[C@H](CCCC(=O)O)NC(=O)c1cn(Cc2ccccc2Cl)c2ccccc12`, with 180 to 183 °C; and `CCCCc1ccc(C[C@@H](CC(N)=O)N(CCCC)C(=O)[C@H](CCCC(=O)O)NC(=O)c2cn(Cc3ccccc3Cl)c3ccccc23)cc1`, with 166 to 168 °C. The same measure, in the same setting: as for `CCCC[C@@H](CC(N)=O)N(CCCC)C(=O)[C@H](CCCC(=O)O)NC(=O)c1cn(Cc2cccc3ccccc23)c2ccccc12`, the figure is 105 to 113 °C; as for `CCCCc1ccc(C[C@@H](CC(N)=O)N(CCC)C(=O)[C@H](CCCC(=O)O)NC(=O)c2cn(Cc3ccccc3)c3ccccc23)cc1`, 82 to 88 °C. On the same count and under the same terms, then `CCCC[C@@H](CC(N)=O)N(CCC)C(=O)[C@H](CCCC(=O)O)NC(=O)c1cn(Cc2cccc3ccccc23)c2ccccc12`, with 98 to 116 °C. On to `CCCN(C(=O)[C@H](CCCC(=O)O)NC(=O)c1cn(Cc2ccccc2)c2ccccc12)[C@H](CC(N)=O)Cc1ccc2ccccc2c1`, for which the melting point lay within 91 to 94 °C. `CCCN(C(=O)[C@H](CCCC(=O)O)NC(=O)c1cn(Cc2ccccc2)c2ccccc12)[C@H](CC(N)=O)Cc1ccc2cc(CC)ccc2c1` gave a melting point of 105 to 116 °C. Still for that read-out and setting: as for `CCCCCC[C@@H](CC(N)=O)N(CCCC)C(=O)[C@H](CCCC(=O)O)NC(=O)c1cn(Cc2ccccc2)c2ccccc12`, the figure is 124 to 127 °C; as for `CCCCN(C(=O)[C@H](CCCC(=O)O)NC(=O)c1cn(Cc2ccccc2)c2ccccc12)[C@H](CC(N)=O)Cc1ccc2ccccc2c1`, 90 to 96 °C; as for `CCCN(C(=O)[C@H](CCCC(=O)O)NC(=O)c1cn(Cc2ccccc2)c2ccccc12)[C@H](CC(N)=O)Cc1ccc(C)cc1`, 83 to 92 °C. Still for that read-out and setting: then `CCN(C(=O)[C@H](CCCC(=O)O)NC(=O)c1cn(Cc2ccccc2Cl)c2ccccc12)[C@H](CC(N)=O)Cc1ccc2ccccc2c1`, with 110 to 114 °C. Still for that read-out and setting: as for `CCCCCC[C@@H](CC(N)=O)N(CCCCC)C(=O)[C@H](CCCC(=O)O)NC(=O)c1cn(Cc2ccccc2)c2ccccc12`, the figure is 127 to 129 °C; as for `CCN(C(=O)[C@H](CCCC(=O)O)NC(=O)c1cn(Cc2cccc3ccccc23)c2ccccc12)[C@H](CC(N)=O)Cc1ccc2ccccc2c1`, 118 to 126 °C. The compound `CCCCc1ccc(C[C@@H](CC(N)=O)N(CCC)C(=O)[C@H](CCCC(=O)O)NC(=O)c2cn(Cc3ccccc3Cl)c3ccccc23)cc1` displayed a melting point of 83 to 87 °C.

For `CCCCCCCCC[C@@H](CC(N)=O)N(CCC)C(=O)[C@H](CCCC(=O)O)NC(=O)c1cn(Cc2ccccc2)c2ccccc12`, the melting point is 155 to 160 °C. On the same count and under the same terms, as for `CCCCCCCCC[C@@H](CC(N)=O)N(CCC)C(=O)[C@H](CCCC(=O)O)NC(=O)c1cn(Cc2ccccc2Cl)c2ccccc12`, the figure is 145 to 150 °C; as for `CCCCCC[C@@H](CC(N)=O)N(CC)C(=O)[C@H](CCCC(=O)O)NC(=O)c1cn(Cc2ccccc2)c2ccccc12`, 80 to 85 °C. Same read-out and setting: then `CCCN(C(=O)[C@H](CCC(=O)O)NC(=O)c1cn(Cc2ccccc2Cl)c2ccccc12)[C@H](CC(N)=O)Cc1ccc2ccccc2c1`, with 85 to 92 °C. The same measure, in the same setting: as for `CCCCCC[C@@H](CC(N)=O)N(CCC)C(=O)[C@H](CCCC(=O)O)NC(=O)c1cn(Cc2cccc3ccccc23)c2ccccc12`, the figure is 139 to 141 °C.

In another series the target is T1, human recombinant PLA2 group II enzyme (Homo sapiens, UniProt P14555).
T1 sequence (P14555 21-144): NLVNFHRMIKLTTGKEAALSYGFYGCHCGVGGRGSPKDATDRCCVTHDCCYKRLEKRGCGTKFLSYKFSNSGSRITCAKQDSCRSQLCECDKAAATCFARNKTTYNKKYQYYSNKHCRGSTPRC
The series is described as follows: Test on the inhibitory effect against phospholipase A2 (PLA2), fluorescent phospholipid substrate. The settings on record: dose 1 × 10^−6 M; 10-pyrene PA-monomethyl ester substrate, room temperature, 10 minutes; read-out: Percent inhibition: inhibition (%). The format is biochemical. As for the experimental part:
Test on the inhibitory effect against phospholipase A2 (PLA2)
PLA2 activity was assayed with a fluorescent phospholipid analogue [1-palmitoyl-2-(10-pyrenyldecanoyl)-sn-glycero-3-monomethylphosphatidic acid(10-pyrene PA-monomethyl ester)] as a substrate, according to Radvanyi et al. (1989) with several modifications. Briefly, the reaction medium was prepared by sequential addition of 1160 μl of 50 mM Tris-HCl (pH 7.4) buffer containing 100 mM NaCl and 1 mM EDTA, 10 μl of 120 μM 10-pyrene PA-monomethyl ester in ethanol, 10 μl of drug sample in methanol and 10 μl of 1.2 μg/ml human recombinant PLA2 group II enzyme. The enzymatic reaction was then initiated with 10 μl of 0.84 M CaCl2. Following incubation at room temperature for 10 minutes, the reaction was terminated by addition of 25 μl of 1 M EDTA and 10 μl of 10 mg/ml β-cyclodextrin. Fluorescence measurements were carried out with a JASCO Corporation FP-777 spectrofluorometer. Excitation and emission wavelengths were 345 nm and 380 nm, respectively. All data are the average of at least duplicate determinations corrected for the spontaneous fluorescence of the reaction medium. Data were expressed as percent inhibition.
F. Radvanyi, L. Jordan, F. Russo-Marie and C. Bon: A sensitive and continuous fluorometric assay for phospholipase A2 using pyrene-labeled phospholipids in the presence of serum albumin. […]
For `NC(=O)C[C@H](Cc1ccc2ccccc2c1)OC(=O)[C@H](CCCC(=O)O)NC(=O)c1cc2ccccc2cc1Cc1ccccc1` [Example 24, (3S)-3-[(2S)-2-(3-Benzylnaphthalen-2-ylcarbonylamino)-5-carboxypentanoyl]oxy-4-(2-naphthyl)butanamide], the inhibition at 1 µM is 100%.
